In patent US4971967A, “Quinolinecarboxylic acid derivatives, antibacterial compositions and use” (Kanebo Ltd, priority 1989, dated 1990):
Converted amounts (≈) assume the structure as drawn. Like-named read-outs stand apart in the source and are kept apart here.

Tests used:
[1] = tested on: Klebsiella pneumoniae PCI-602; assay: Antibacterial activity (MIC), Klebsiella pneumoniae PCI-602; type: cell-based; conditions: PCI602; Klebsiella pneumoniae PCI-602, Gram -; read-out: Minimum inhibitory concentration (MIC)
How it was run: (§1)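 Stock solutions (5000 μg/ml) were prepared in dilute alkali (0.1 N NaOH) for some compounds and in sterile water for others. After dilution to 1000 μg/ml standards, MIC testing proceeded per the Japan Society of Chemotherapy protocol.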

[2] = tested on: Morganella morganii IFO 3848; assay: Antibacterial activity (MIC), Morganella morganii IFO 3848; type: cell-based; conditions: Morganella morganii, IFO3848, Morganella morganii IFO 3848, Gram -; read-out: Minimum inhibitory concentration (MIC)
How it was run: as §1

[3] = tested on: Proteus mirabilis IFO 3849; assay: Antibacterial activity (MIC), Proteus mirabilis IFO 3849; type: cell-based; conditions: IFO3849; Proteus mirabilis IFO 3849, Gram -; read-out: Minimum inhibitory concentration (MIC)
How it was run: as §1

[4] = tested on: Serratia marcescens IAM 1184; assay: Antibacterial activity (MIC), Serratia marcescens IAM 1184; type: cell-based; conditions: Serratia marcescens, IAM1184, Serratia marcescens IAM 1184, Gram -; read-out: Minimum inhibitory concentration (MIC)
How it was run: as §1

[5] = tested on: infection; assay: Protective effects against infection (Experiments 3 and 4); type: in vivo, ddY male mice; conditions: result in words
Protocol: (§2) The test microorganisms were subjected to standing culture in Trypto-Soya Agar "Nissui" (made by Nissui Seiyaku K.K., Japan) at 37° C. for 16 to 18 hours. The culture was then diluted with PBS (Dulbecco's phosphate buffered saline) and mixed with an equivalent amount of 10% (w/v) Mucin (BACTO MUCIN BACTERIOLOGICAL, made by Difco Co.) to prepare a microorganism solution. The thus prepared microorganism solution (0.5 ml each) was intraperitoneally inoculated to ddY male mice (5 weeks age, weighing 25-28 g, 5 mice in each group), to infect the animals. One hour after the infection, the compound (A) or (J) of the present invention or the known compound (X) suspended in 1% (w/v) aqueous gum arabic or the known compound (Y) dissolved in sterilized distilled water was orally adiministered to mice.
(§3) The mice were daily observed for one week, and from the survival number of mice after one week, the 50% effective dose (ED50) was calculated by Weil method.
The procedure of Experiment 3 was repeated except that ddY male mice weighing 24 to 28 g were employed.

[6] = tested on: Enterobacter aerogenes ATCC 13048; assay: Antibacterial activity (MIC), Enterobacter aerogenes ATCC 13048; type: cell-based; conditions: Klebsiella aerogenes, ATCC13048; Enterobacter aerogenes ATCC 13048, Gram -; read-out: Minimum inhibitory concentration (MIC)
How it was run: as §1

[7] = Low toxicity (Experiments 5 and 6); type: in vivo, ddY male mice; conditions: result in words
Protocol: The compound (A) or (J) of the present invention was suspended in 1% (w/v) aqueous gum arabic to prepare a suspension in concentration of 100 mg/ml. The suspension was orally administered to ddY male mice (5 weeks age, weighing 20 to 25 g, 5 mice in each group), which had been fasted for 18 hours, at a rate of 2000 mg/kg body weight of the compound (A) or (J).
The compound (O) or (P) of the present invention was suspended in sterilized distilled water to prepare a suspension. The suspension was orally adminstered to ddY male mice (5 weeks age, weighing 20 to 25 g, 5 mice in each group), which had been fasted for 18 hours.

[8] = tested on: Pseudomonas aeruginosa E-2; assay: Antibacterial activity (MIC), P. aeruginosa E-2; type: cell-based; conditions: E2; Pseudomonas aeruginosa E-2, Gram -; read-out: Minimum inhibitory concentration (MIC)
How it was run: as §1

[9] = tested on: Escherichia coli NIHJ JC-2; assay: Antibacterial activity (MIC), E. coli NIHJ JC-2; type: cell-based; conditions: NIHJJC2; Escherichia coli NIHJ JC-2, Gram -; read-out: Minimum inhibitory concentration (MIC)
How it was run: as §1

[10] = tested on: Staphylococcus aureus IID 803; assay: Antibacterial activity (MIC), S. aureus IID 803; type: cell-based
How it was run: as §1

[11] = tested on: Staphylococcus aureus IID 803; assay: Effect on treatment of general infectious disease, S. aureus IID 803 (Experiment 3); type: in vivo, ddY male mice infected with Staphylococcus aureus; conditions: IID803, 168 h, oral, 1 h after i.p. infection, 5.0×10^7 CFU/mouse, survival after one week
Protocol: Staphylococcus aureus IID 803 (5.0×10^7 CFU/mouse)
as §2, §3

[12] = tested on: Enterobacter cloacae 963; assay: Antibacterial activity (MIC), Enterobacter cloacae 963; type: cell-based; conditions: Enterobacter cloacae, 963, Enterobacter cloacae 963, Gram -; read-out: Minimum inhibitory concentration (MIC)
How it was run: as §1

[13] = tested on: Staphylococcus epidermidis IAM-1296; assay: Antibacterial activity (MIC), S. epidermidis IAM-1296; type: cell-based; conditions: Staphylococcus epidermidis, IAM1296, Staphylococcus epidermidis IAM-1296, Gram +; read-out: Minimum inhibitory concentration (MIC)
How it was run: as §1

[14] = tested on: Citrobacter freundii NIHJ 10018-68; assay: Antibacterial activity (MIC), Citrobacter freundii NIHJ 10018-68; type: cell-based; conditions: Citrobacter freundii, NIHJ10018, Citrobacter freundii NIHJ 10018-68, Gram -; read-out: Minimum inhibitory concentration (MIC)
How it was run: as §1

[15] = tested on: Staphylococcus aureus FDA 209P JC-1; assay: Antibacterial activity (MIC), S. aureus FDA 209P JC-1; type: cell-based; conditions: FDA209P, read-out: Minimum inhibitory concentration (MIC)
How it was run: as §1

[16] = tested on: clinically isolated methicillin resistant Staphylococcus aureus; assay: MIC against clinically isolated methicillin resistant Staphylococcus aureus; type: cell-based; conditions: 54 strains; for MIC50: minimum concentration for inhibiting growth of the strains by 50%; for MIC90: minimum concentration for inhibiting growth of the strains by 90%
Protocol: The compounds (A) and (J) of the present invention and the known compound (X) were dissolved in 0.1 N aqueous sodium hydroxide, and the known compound (Y) in sterilized distilled water, to prepare a solution of 5000 μg/ml in concentration each. The above solutions were then diluted with sterilized distilled water to prepare a standard solution with a concentration of the test compound: 1000 μg/ml each. The test was carried out by a method appointed by Japan Society of Chemotherapy (ibidem) to measure minimum inhibitory concentration (MIC) against 54 strains of clinically isolated methicillin resistant Staphylococcus aureus, from which there were calculated a range of MIC (MICrange) of the test compound against these resistant strains, a minimum concentration for inhibiting the growth of the strains by 50% (MIC50) and a minimum concentration for inhibiting the growth of the strains by 90% (MIC90).

[17] = tested on: Shigella sonnei EW-33; assay: Antibacterial activity (MIC), Shigella sonnei EW-33; type: cell-based; conditions: Shigella sonnei, EW33, Shigella sonnei EW-33, Gram -; read-out: Minimum inhibitory concentration (MIC)
How it was run: as §1

SMILES	MIC [1] [µg/mL]	MIC [2] [µg/mL]	MIC [3] [µg/mL]	MIC [4] [µg/mL]	protective effects against infection [5]	MIC [6] [µg/mL]	toxicity [7]	MIC [8] [µg/mL]	MIC [9] [µg/mL]	ED50 [11] [mg/kg]	MIC [12] [µg/mL]	MIC [13] [µg/mL]	MIC [14] [µg/mL]	MIC [16] [µg/mL]	MIC50 [16] [µg/mL]	MIC90 [16] [µg/mL]	MIC [17] [µg/mL]	further results
CCN1CCN(c2c(F)cc3c(=O)c(C(=O)O)c4scc5n4c3c2N(C)C5)CC1 [Compound (J), 9,1-(Methylimino)methano-7-fluoro-8-(4-ethyl-1-piperazinyl)-5-oxo-5H-thiazolo[3,2-a]quinoline-4-carboxylic acid]	0.006 (≈ 0.0144 µM)	0.1 (≈ 0.24 µM)	0.39 (≈ 0.936 µM)	0.39 (≈ 0.936 µM)	excellent protective effects against infection	0.1 (≈ 0.24 µM)	low toxicity	0.78 (≈ 1.87 µM)	0.1 (≈ 0.24 µM)	5.8	0.1 (≈ 0.24 µM)	0.1 (≈ 0.24 µM)	0.39 (≈ 0.936 µM)	0.025 to 0.1 (≈ 0.06 to 0.24 µM)	0.05 (≈ 0.12 µM)	0.1 (≈ 0.24 µM)	0.05 (≈ 0.12 µM)	MIC ([10]; Staphylococcus aureus, IID803, read-out: Minimum inhibitory concentration (MIC)): 0.05 µg/mL (≈ 0.12 µM); MIC ([15]; Staphylococcus aureus): 0.05 µg/mL (≈ 0.12 µM)
CN1CCN(c2c(F)cc3c(=O)c(C(=O)O)c4scc5n4c3c2N(C)C5)CC1 [Compound (A), 9,1-(Methylimino)methano-7-fluoro-8-(4-methyl-1-piperazinyl)-5-oxo-5H-thiazolo[3,2-a]quinoline-4-carboxylic acid]	0.006 (≈ 0.0149 µM)	0.05 (≈ 0.124 µM)	0.2 (≈ 0.497 µM)	0.2 (≈ 0.497 µM)	excellent protective effects against infection	0.05 (≈ 0.124 µM)	low toxicity	0.78 (≈ 1.94 µM)	0.05 (≈ 0.124 µM)	5.8	0.05 (≈ 0.124 µM)	0.05 (≈ 0.124 µM)	0.2 (≈ 0.497 µM)	0.025 to 0.1 (≈ 0.0621 to 0.248 µM)	0.05 (≈ 0.124 µM)	0.1 (≈ 0.248 µM)	0.025 (≈ 0.0621 µM)	MIC ([10]; IID803, Staphylococcus aureus IID 803, Gram +, read-out: Minimum inhibitory concentration (MIC)): 0.05 µg/mL (≈ 0.124 µM); MIC ([15]; Staphylococcus aureus FDA 209P JC-1, Gram +): 0.05 µg/mL (≈ 0.124 µM)
